The target in series [1] is ELAV-like protein 1 (Homo sapiens) (UniProt Q15717). Put plainly: Binding affinity to HuR (unknown origin) assessed as absolute STD percentage for pyridone moiety by 1H-STD-NMR spectroscopic analysis.
For series [2] the target is unchanged. Briefly: Binding affinity to HuR (unknown origin) assessed as absolute STD percentage for isopropyl moiety by 1H-STD-NMR spectroscopic analysis.
The target is the same in series [3]. Briefly: Binding affinity to HuR (unknown origin) assessed as absolute STD percentage for ring A moiety by 1H-STD-NMR spectroscopic analysis.
Series [4] shares this target. Put plainly: Binding affinity to HuR (unknown origin) assessed as absolute STD percentage for ring B moiety by 1H-STD-NMR spectroscopic analysis.
Series [5] has the same target. Briefly: Binding affinity to HuR (unknown origin) assessed as absolute STD percentage for ring C moiety by 1H-STD-NMR spectroscopic analysis.
Series [6] has the same target. Briefly: Binding affinity to HuR (unknown origin) assessed as absolute STD percentage for protons of the amino chain (H14, H15, and H16) by 1H-STD-NMR spectroscopic analysis.
A short description of series [7]: Solubility of the compound. The class given is physicochemical.

Calls of active or inactive are those of the source. No cut-off for these calls is given here.

ELAV-like protein 1 (Homo sapiens), sequence (Q15717 whole entry): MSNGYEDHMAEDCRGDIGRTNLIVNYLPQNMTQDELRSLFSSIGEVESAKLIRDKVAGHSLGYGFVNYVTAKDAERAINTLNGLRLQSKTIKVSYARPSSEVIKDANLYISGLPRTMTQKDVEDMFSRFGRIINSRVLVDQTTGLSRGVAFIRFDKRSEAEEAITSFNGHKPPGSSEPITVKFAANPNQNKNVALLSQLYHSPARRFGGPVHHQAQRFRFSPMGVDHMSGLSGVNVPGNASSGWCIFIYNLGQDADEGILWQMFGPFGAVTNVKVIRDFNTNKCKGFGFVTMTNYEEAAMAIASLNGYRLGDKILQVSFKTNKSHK

As to `CC(C)Cn1cnc(-c2cccc(Oc3ccccc3)c2)c1-c1ccc(=O)[nH]c1`, the Activity was determined as 1.2% in series [1] and 0.3% in series [2].

For the molecule `O=C(c1ccc(O)cc1)N(CCc1cc(O)cc(O)c1)Cc1cccc(Cl)c1`, the Activity in series [3] came out at 0.4%; in series [4] it was 0.36%; in series [5], 0.25%.

Take `COc1cc(OC)cc([C@@H]2[C@@H](C(=O)NCCNCc3ccccc3)CCC(=O)N2CC(C)C)c1` (racemic): the values for the Activity in series [2], in series [3] and in series [4] were 0.4%, 0.2% and 0.03%, respectively. Also, in series [6], the result was inactive.

Turning to `COc1cc(OC)cc(-c2nc3sccn3c2NCCNC(=O)OCc2ccccc2)c1.Cl`, in series [7], the solubility entry was “Insoluble”.

The values are drawn from ChEMBL document CHEMBL4339226, “Novel Compounds Targeting the RNA-Binding Protein HuR. Structure-Based Design, Synthesis, and Interaction Studies” (ACS Med Chem Lett, 2019).
